Assay results from patent US8247002B2, “Antioxidant material, anti-deterioration agent and food or beverage” (Pokka Corporation, priority 2004, dated 2012).

Tests used:
Type in all cases: biochemical
[1] = Measurement of DPPH radical-scavenging activity; details: 500 ppm solution (with vitamin C: each 500 ppm), 100 μl aliquot, 20 minutes room temperature in the dark
Procedure: Each sample shown in Table 1 described below was examined for DPPH (1,1-diphenyl-2-picrylhydrazyl) radical-scavenging activity. Namely, the lemon glycoside of Comparative Example 1, the eriocitrin of Comparative Example 2, the enzyme-treated aglycon of Test Example 1, or eriodictyol, neoeriocitrin, vitamin C, or α-tocopherol purchased from Funakoshi was dissolved at its concentration of 500 ppm in a solvent to produce an aqueous solution. Then, 100 μl aliquot of the aqueous solution was supplemented with 1 ml of 0.1 M Tris buffer (pH 7.4). The solvent used for α-tocopherol was methanol. Alternatively, each sample described above and vitamin C were dissolved at each concentration of 500 ppm in a solvent to produce an aqueous solution whose 100 μl aliquot was then supplemented with 1 ml of 0.1 M Tris buffer. Subsequently, 2 ml of a DPPH solution (solution obtained by dissolving DPPH at its concentration of 500 μM in ethanol) was added to the solutions and well mixed. The resulting solutions were left at room temperature for 20 minutes in the dark to undergo reaction. The amount of DPPH in each reaction solution (10 μl) was quantified by measurement using HPLC Analysis System 2 described below under HPLC Condition 3. In a method of evaluating radical-scavenging activity, the amount of DPPH remaining in the sample (glycoside and aglycon)-free test section (control) was regarded in advance as 100%. Additionally, the amount of DPPH remaining in the reaction solution supplemented with each sample was measured and indicated by percentage (%) with respect to the amount of DPPH in the control section. Because the radical-scavenging activity of the section supplemented with eriodictyol and vitamin C was almost 100%, the test was conducted again with the amount of the sample reduced to half. Namely, eriodictyol and vitamin C were dissolved at each concentration of 500 ppm in a solvent to produce an aqueous solution whose 50 μl aliquot was then supplemented with 1 ml of 0.1 M Tris buffer. The radical-scavenging activity of the resulting solution was measured as described above. The obtained numeric value was doubled to thereby correct the data. The result is shown in Table 1. <HPLC Analysis System 2> Pump: Shimadzu LC-10AD, System Controller: Shimadzu SCL-10A, Autoinjector: Shimadzu SIL-10A, Detector: Shimadzu SPD-10A (UV spectrophotometric detector), Column Oven: Shimadzu CTO-10A <HPLC Condition 3> Column: TSK-GEL octyl-80Ts (4.6 i.d.×150 mm), Eluent: methanol/water=30/70 (v/v), Flow Rate: 1 ml/min, Detection Wavelength: 517 nm

[2] = Inhibitory effects on generation of peroxide lipid, methyl linoleate as substrate; details: 100 μl of 500 ppm solution, 89 mg methyl linoleate, 40° C. 18 hours in the dark
Procedure: Each sample shown in Table 1 described above was examined for inhibitory effects on the generation of peroxide lipid, with methyl linoleate as a substrate. Namely, 100 μl of each aqueous solution used in the paragraph (Measurement of radical-scavenging activity) and 89 mg (100 μl) of methyl linoleate were added to a small test tube of 14 mm in inner diameter and well mixed. At the same time, 100 μl of only the solvent for the aqueous solution was added instead of the aqueous solution to prepare a control. The solvents in these mixture solutions were completely removed in a vacuum desiccator using a vacuum pump. The resulting solutions were left in the dark at 40° C. for 18 hours. Next, 5 ml of 0.08% BHT (2,6-di-t-butyl-4-methylphenol)/hexane solution was added thereto. The amount of peroxide generated from methyl linoleate was measured using HPLC Analysis System 2 shown below under HPLC Condition 4. In a method of measuring and evaluating antioxidative activity, the total of HPLC peak area of peroxide lipids (13-hydroperoxide and 9-hydroperoxide) generated from methyl linoleate in the control test section was determined first. This determined value was regarded as 100%. The total HPLC peak area of the peroxide lipids in the test section supplemented with each sample was determined. This determined value was indicated by percentage (%) with respect to the total of HPLC peak area of the control to thereby determine a rate of inhibition against the oxidation of methyl linoleate.
Pump: Shimadzu LC-10AD, System Controller: Shimadzu SCL-10A, Autoinjector: Shimadzu SIL-10A, Detector: Shimadzu SPD-10A (UV spectrophotometric detector), Column Oven: Shimadzu CTO-10A
Column: Develosil ST 60-5 (4.6 i.d.×250 mm), Eluent: n-hexane/1,4-dioxane/isopropylalcohol=98/1/1 (v/v/v), Flow Rate: 1 ml/min, Detection Wavelength: 235 nm

[3] = Inhibitory effect on oxidation of biomembrane using liposome (SUV, AAPH, TBA); details: 500 ppm sample in phosphate buffer pH 7.4, AAPH, 535 nm
Procedure: A single compartment liposome (SUV: Small Unilamellar Vesicle) was used as a biomembrane model to evaluate antioxidative power. For preparing SUV, at first, 100 mg of yolk lecithin was supplemented with 1 ml of chloroform and completely dissolved, followed by the complete removal of the chloroform in a short-neck flask. The obtained lipid film was swollen by the addition of 10 ml of 10 mM phosphate buffer (pH 7.4) containing 500 ppm of the lemon glycoside of Comparative Example 1, the eriocitrin of Comparative Example 2, the enzyme-treated aglycon of Test Example 1, or eriodictyol (manufactured by Funakoshi). The resulting mixture was well shaken and completely dispersed with an ultrasonic washing machine. The lipid film swollen by the addition of 10 ml of only the phosphate buffer was tested as a control in the same way. Next, the obtained multilayer liposome solution was bubbled with nitrogen gas for 5 minutes and then sonicated at 180 W for 20 minutes in a strong ultrasonic generator to prepare a small unilamellar vesicle (SUV).
The peroxidation of the SUV thus prepared was forcedly promoted by the addition of AAPH ([…]), a radical initiator, to the SUV. As a result, a peroxide as a primary product is generated in the liposome. Subsequently, as a secondary product such as malondialdehyde is generated during the course of autoxidation. A thiobarbituric acid (TBA) reagent is added thereto to generate a red substance (TBA-positive substance), a reaction product of aldehydes. The degree of coloration thereof was measured with a spectrophotometer at λ=535 nm and used to determine the rate of oxidation of the liposome membrane (%).

[4] = Measurement of rate of elimination of active oxygen (xanthine oxidase / xanthine / nitro blue tetrazolium); details: as printed for α-tocopherol in the active oxygen test
Procedure: Xanthine oxidase (0.5 ml (5.6 units)) was mixed with 0.3 ml of 1 mM xanthine (manufactured by Wako Pure Chemical Industries), 0.3 ml of 0.25 mM nitro blue tetrazolium (manufactured by Wako Pure Chemical Industries), and 2.3 ml of 0.05 M sodium carbonate buffer (pH 10.2). The xanthine oxidase used was a reagent (manufactured by Wako Pure Chemical Industries) diluted at 100 fold with 0.05 M sodium carbonate buffer. This mixture was supplemented with 0.1 ml (concentration: 1000 ppm) of the lemon glycoside of Comparative Example 1 or the enzyme-treated aglycon of Test Example 1 and incubated. Because blue formazan was produced with a lapse of incubation time, absorbance at λ=560 nm was measured using a spectrophotometer (HITACHI spectrophotometer U2000) after 3 minutes of incubation. A test section without addition of the sample (glycoside and aglycon) was used as control. As a blank test, a sodium carbonate buffer was added instead of the xanthine oxidase to perform the same procedures. A value obtained by subtracting the absorbance of the blank test from the absorbance of the solution supplemented with each sample was divided by the absorbance of the control to thereby determine a rate of elimination of active oxygen (%).

Row | SMILES | DPPH radical-scavenging activity [1] [%] | Rate of inhibition against oxidation of methyl linoleate [2] [%] | rate of oxidation of the liposome membrane [3] [%] | rate of oxidation [4] [%]
1 | C[C@@H]1O[C@@H](OC[C@H]2O[C@@H](Oc3cc(O)c4c(c3)O[C@H](c3ccc(O)c(O)c3)CC4=O)[C@H](O)[C@@H](O)[C@@H]2O)[C@H](O)[C@H](O)[C@H]1O [Eriocitrin, eriocitrin] | 28.64 | 8.00 | 9.52 | 
2 | O=C1C[C@@H](c2ccc(O)c(O)c2)Oc2cc(O)cc(O)c21 [Eriodictyol, eriodictyol] | 75.70 | 20.99 | 6.80 | 
3 | C[C@@H]1O[C@@H](O[C@H]2[C@H](Oc3cc(O)c4c(c3)O[C@H](c3ccc(O)c(O)c3)CC4=O)O[C@H](CO)[C@@H](O)[C@@H]2O)[C@H](O)[C@H](O)[C@H]1O [Neoeriocitrin, neoeriocitrin] | 30.70 | 9.24 |  | 
4 | O=C1O[C@H]([C@@H](O)CO)C(O)=C1O [Vitamin C, ascorbic acid] | 14.00 | 8.32 |  | 
5 | Cc1c(C)c2c(c(C)c1O)CC[C@@](C)(CCC[C@H](C)CCC[C@H](C)CCCC(C)C)O2 [α-tocopherol] | 44.82 | 16.97 | 76.87 | 238.2
